Like-named read-outs stand apart in the source and are kept apart here.
Tests used:
[1] = tested on: circulating lymphocytes; assay: Measurement of Circulating Lymphocytes; format: in vivo, Rats (Lewis strain, male); settings: Rattus norvegicus, Lymphocyte, read-out: Residual Lymphocyte Counts 14 hours after 30 mg/kg p.o. dosing
Method: The compounds of formula (I) typically induce the depletion of blood lymphocyte as may be determined in the assay described below. Moreover, compounds of formula (I) are typically efficacious in the said assay also when administered via the per oral route of administration.
Measurement of Circulating Lymphocytes:
The test compounds (or salts thereof) are dissolved in a vehicle such as water, saline, PEG (polyethylene glycol) 200, or PBS (phosphate buffered saline). Rats (Lewis strain, male, 6-12 weeks old) are administered up to 100 mg/kg of the test compounds in 2 ml/kg vehicle via per oral or subcutaneous application. The vehicle or a reference salt and FTY720 (0.3 mg/kg) are included as negative and positive controls, respectively.
Blood is collected from the sublingual vein before and 2, 8 and 24 hours or 14, 18 and 24 hours after the test compound administration under short isoflurane anesthesia. Whole blood samples are subjected to hematology analysis. Peripheral lymphocyte counts are determined using an automated analyzer. The Haemathology System uses a combination of light scatter, cytochemical staining and nuclear density on two independent channels to measure the total and differential white cell counts. Two to four rats are used to assess the lymphocyte depletion activity of each compound screened. The data are presented as mean±SEM.

[2] = molecular target: T1, human S1P1 receptors (Homo sapiens, UniProt P21453); assay: Human S1P1 Receptor Calcium FLIPR Antagonist Assay (HeLa Gα16 S1P1); format: cell-based; settings: relative antagonism of Ca2+ signal evoked by probing agonist GNF-AC-1 at EC80; HeLa-S1P1/Gα16 cells
T1 construct: myc (N); expressed in transfected cells; host or cells: HeLa (human cervix carcinoma, ATCC CCL2), HeLa-S1P1/Gα16 cell clone 1
How it was run: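 HeLa Gα16 cells expressing S1P1 loaded for calcium fluorescence on FLIPR; compounds added in HBSS with 0.1% BSA, then agonist at EC80 20-30 min later. IC50 from (Fmax-Fmin)/Fmin versus log compound concentration.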

[3] = male Lewis rats, 14 hours after oral 30 mg/kg, compared to vehicle-only group, mean±SEM

T1 sequence (P21453 whole entry): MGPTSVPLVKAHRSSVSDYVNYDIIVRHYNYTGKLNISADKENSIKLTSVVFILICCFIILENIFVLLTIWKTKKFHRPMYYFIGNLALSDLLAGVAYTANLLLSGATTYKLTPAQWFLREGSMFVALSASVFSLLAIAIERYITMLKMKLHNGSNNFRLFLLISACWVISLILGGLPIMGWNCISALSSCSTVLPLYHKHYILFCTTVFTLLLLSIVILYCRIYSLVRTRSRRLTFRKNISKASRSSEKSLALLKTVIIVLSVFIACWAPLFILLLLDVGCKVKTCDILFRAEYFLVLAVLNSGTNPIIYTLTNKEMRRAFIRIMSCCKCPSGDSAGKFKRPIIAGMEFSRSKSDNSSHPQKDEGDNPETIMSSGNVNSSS

## Cc1cc([C@@H](C)Nc2cccc(-c3cc(C)c(C(=O)N[C@@H](C)C(=O)O)c(C)c3)c2)ccc1Cl [Example 3, (S)-2-({3′-[(R)-1-(4-Chloro-3-methyl-phenyl)-ethylamino]-3,5-dimethyl-biphenyl-4-carbonyl}-amino)-propionic acid]
[1]; po, 14 h
  response vs control in vivo at 30 mg/kg: 15.5%

## CC[C@@H](Nc1cccc(-c2cc(C)c(C(=O)N[C@@H](C)C(=O)O)c(C)c2)c1)c1ccc(Cl)c(C)c1 [Example 6, (S)-2-({3′-[(R)-1-(4-Chloro-3-methyl-phenyl)-propylamino]-3,5-dimethyl-biphenyl-4-carbonyl}-amino)-propionic acid]
[2]
  IC50: 2 nM
[1]; [3]
  response vs control in vivo at 30 mg/kg: 15.9%

## Cc1cc(C(C)Nc2cccc(-c3cc(C)c(C(=O)NC4(C(=O)O)CC4)c(C)c3)c2)ccc1Cl (stereo not drawn) [Example 7, 1-({3′-[1-(4-Chloro-3-methyl-phenyl)-ethylamino]-3,5-dimethyl-biphenyl-4-carbonyl}-amino)-cyclopropanecarboxylic acid]
[2]
  IC50: 2 nM
[1]; [3]
  response vs control in vivo at 30 mg/kg: 14.8%

## Cc1cc([C@@H](C)Nc2cccc(-c3cc(C)c(C(=O)NC4(C(=O)O)CC4)c(C)c3)c2)ccc1Cl [Example 8, 1-({3′-[(R)-1-(4-Chloro-3-methyl-phenyl)-ethylamino]-3,5-dimethyl-biphenyl-4-carbonyl}-amino)-cyclopropanecarboxylic acid]
[2]
  IC50: 2 nM
[1]; [3]
  response vs control in vivo at 30 mg/kg: 16.7%

## CCC(Nc1cccc(-c2cc(C)c(C(=O)N[C@@H](C)C(=O)O)c(C)c2)c1)c1ccc(Cl)c(Cl)c1 (stereo partly drawn) [Example 20, (S)-2-({3′-[1-(3,4-Dichloro-phenyl)-propylamino]-3,5-dimethyl-biphenyl-4-carbonyl}-amino)-propionic acid]
[2]
  IC50: 8 nM
[1]; [3]
  response vs control in vivo at 30 mg/kg: 18.7%

## Cc1cc(C(C)Nc2ccc(F)c(-c3cc(C)c(C(=O)N[C@@H](C)C(=O)O)c(C)c3)c2)ccc1Cl (stereo partly drawn) [Example 22, (S)-2-({5′-[1-(4-Chloro-3-methyl-phenyl)-ethylamino]-2′-fluoro-3,5-dimethyl-biphenyl-4-carbonyl}-amino)-propionic acid]
[2]
  IC50: 2 nM
[1]; [3]
  response vs control in vivo at 30 mg/kg: 18.7%

## Cc1cc([C@@H](C)Nc2ccc(F)c(-c3cc(C)c(C(=O)N[C@@H](C)C(=O)O)c(C)c3)c2)ccc1Cl [Example 23, (S)-2-({5′-[(R)-1-(4-Chloro-3-methyl-phenyl)-ethylamino]-2′-fluoro-3,5-dimethyl-biphenyl-4-carbonyl}-amino)-propionic acid]
[2]
  IC50: 1 nM
[1]; [3]
  response vs control in vivo at 30 mg/kg: 17.4%

## CCC(Nc1ccc(F)c(-c2cc(C)c(C(=O)N[C@@H](C)C(=O)O)c(C)c2)c1)c1ccc(Cl)c(C)c1 (stereo partly drawn) [Example 24, (S)-2-({5′-[1-(4-Chloro-3-methyl-phenyl)-propylamino]-2′-fluoro-3,5-dimethyl-biphenyl-4-carbonyl}-amino)-propionic acid]
[2]
  IC50: 1 nM
[1]; [3]
  response vs control in vivo at 30 mg/kg: 16.8%

## CCC(Nc1ccc(F)c(-c2cc(C)c(C(=O)NC3(C(=O)O)CC3)c(C)c2)c1)c1ccc(Cl)c(C)c1 (stereo not drawn) [Example 25, 1-({5′-[1-(4-Chloro-3-methyl-phenyl)-propylamino]-2′-fluoro-3,5-dimethyl-biphenyl-4-carbonyl}-amino)-cyclopropanecarboxylic acid]
[2]
  IC50: 2 nM
[1]; [3]
  response vs control in vivo at 30 mg/kg: 15%

## Cc1cc(C(C)Nc2ccc(F)c(-c3cc(C)c(C(=O)NC4(C(=O)O)CC4)c(C)c3)c2)ccc1Cl (stereo not drawn) [Example 26, 1-({5′-[1-(4-Chloro-3-methyl-phenyl)-ethylamino]-2′-fluoro-3,5-dimethyl-biphenyl-4-carbonyl}-amino)-cyclopropanecarboxylic acid]
[2]
  IC50: 1 nM
[1]; [3]
  response vs control in vivo at 30 mg/kg: 12.9%

## Cc1cc([C@@H](C)Nc2cccc(-c3cc(C)c(C(=O)N(C)[C@@H](C)C(=O)O)c(C)c3)c2)ccc1Cl [Example 73]
[2]
  IC50: 4 nM
[1]; [3]
  response vs control in vivo at 30 mg/kg: 16.6%

## Cc1cc(C(Nc2cccc(-c3cc(C)c(C(=O)N[C@@H](C)C(=O)O)c(C)c3)c2)C(F)(F)F)ccc1Cl (stereo partly drawn) [Example 74, (S)-2-({3′-[1-(4-Chloro-3-methyl-phenyl)-2,2,2-trifluoro-ethylamino]-3,5-dimethyl-biphenyl-4-carbonyl}-amino)-propionic acid]
[2]
  IC50: 8 nM
[1]; [3]
  response vs control in vivo at 30 mg/kg: 15.5%

## Cc1cc(C(Nc2cccc(-c3cc(C)c(C(=O)N[C@@H](C)C(=O)O)c(C)c3)c2)C(F)F)ccc1Cl (stereo partly drawn) [Example 75, (S)-2-({3′-[1-(4-Chloro-3-methyl-phenyl)-2,2-difluoro-ethylamino]-3,5-dimethyl-biphenyl-4-carbonyl}-amino)-propionic acid]
[2]
  IC50: 6 nM
[1]; [3]
  response vs control in vivo at 30 mg/kg: 19.4%

## Cc1cc([C@@H](C)Nc2cccc(-c3cc(C)c(C(=O)N(C)C4(C(=O)O)CC4)c(C)c3)c2)ccc1Cl [Example 81, 1-({3′-[(R)-1-(4-Chloro-3-methyl-phenyl)-ethylamino]-3,5-dimethyl-biphenyl-4-carbonyl}-methyl-amino)-cyclopropanecarboxylic acid]
[2]
  IC50: 1 nM
[1]; [3]
  response vs control in vivo at 30 mg/kg: 15.4%

## Cc1cc(C(C)(C)Nc2cccc(-c3cc(C)c(C(=O)N[C@@H](C)C(=O)O)c(C)c3)c2)ccc1Cl [Example 82, (S)-2-({3′-[1-(4-Chloro-3-methyl-phenyl)-1-methyl-ethylamino]-3,5-dimethyl-biphenyl-4-carbonyl}-amino)-propionic acid]
[2]
  IC50: 3 nM
[1]; [3]
  response vs control in vivo at 30 mg/kg: 10.8%

## Cc1cc(C(C)(C)Nc2cccc(-c3cc(C)c(C(=O)N(C)[C@@H](C)C(=O)O)c(C)c3)c2)ccc1Cl [Example 83, (S)-2-({3′-[1-(4-Chloro-3-methyl-phenyl)-1-methyl-ethylamino]-3,5-dimethyl-biphenyl-4-carbonyl}-methyl-amino)-propionic acid]
[2]
  IC50: 2 nM
[1]; [3]
  response vs control in vivo at 30 mg/kg: 15.2%

## Cc1cc(C(C)(C)Nc2cccc(-c3cc(C)c(C(=O)NC4(C(=O)O)CC4)c(C)c3)c2)ccc1Cl [Example 84, 1-({3′-[1-(4-Chloro-3-methyl-phenyl)-1-methyl-ethylamino]-3,5-dimethyl-biphenyl-4-carbonyl}-amino)-cyclopropanecarboxylic acid]
[2]
  IC50: 2 nM
[1]; [3]
  response vs control in vivo at 30 mg/kg: 18.6%

## Cc1cc(C(C)(C)Nc2cccc(-c3cc(C)c(C(=O)N(C)C4(C(=O)O)CC4)c(C)c3)c2)ccc1Cl [Example 85, 1-({3′-[1-(4-Chloro-3-methyl-phenyl)-1-methyl-ethylamino]-3,5-dimethyl-biphenyl-4-carbonyl}-methyl-amino)-cyclopropanecarboxylic acid]
[2]
  IC50: 11 nM
[1]; [3]
  response vs control in vivo at 30 mg/kg: 14.7%

## Cc1cc([C@@H](C)Nc2cccc(-c3cc(C)c(C(=O)NC4(C(=O)O)CC4)c(C)c3)c2)cc(C)c1Cl [Example 99, 1-({3′-[(R)-1-(4-Chloro-3,5-dimethyl-phenyl)-ethylamino]-3,5-dimethyl-biphenyl-4-carbonyl}-amino)-cyclopropanecarboxylic acid]
[2]
  IC50: 1 nM
[1]; [3]
  response vs control in vivo at 30 mg/kg: 15.5%

## Cc1cc([C@@H](C)Nc2cccc(-c3cc(C)c(C(=O)N[C@@H](C)C(=O)O)c(C)c3)c2)cc(C)c1Cl [Example 100, (S)-2-({3′-[(R)-1-(4-Chloro-3,5-dimethyl-phenyl)-ethylamino]-3,5-dimethyl-biphenyl-4-carbonyl}-amino)-propionic acid]
[2]
  IC50: 1 nM
[1]; [3]
  response vs control in vivo at 30 mg/kg: 20.9%

From patent publication US20100168079A1 (priority 2008, published 2010)
